This note sets out measurements from patent US20100137398A1, “USE OF HDAC INHIBITORS FOR THE TREATMENT OF GASTROINTESTINAL CANCERS” (NOVARTIS AG, priority 2007, published 2010).

SMILES strings stand for the structures.

The subject of the test is Colo205 colon cancer xenograft. In words: Colo205 colon cancer xenograft model, tumor growth inhibition and delay. Type of test: in vivo, Female athymic nude mice. The note with it: LBH589 30 mg/kg iv Mon/Wed/Fri for 3 weeks, 5-FU 75 mg/kg ip once a week for 3 weeks, or both. As to the method:
Female athymic nude mice-were implanted subcutaneously with Col6205 colon cancer cells. When tumors reached a medan tumor volume of 220 mm3, mice were randomized into groups of 10 mice. Mice were treated with LBH589 at 30 mg/kg intravenously on Monday, Wednesday, Friday per week for 3 weeks, 75 mg/kg of 5-Fluorouracil intraperitoneally once a week for 3 weeks, or combination of the two agents. For tumor growth inhibition (FIG. 2A), compound activity was measured as the percent change in tumor volume of treated animals over control animals (% T/C). The percentage of regression was determined as the percent change in the final tumor volume at the end of the study over the starting tumor volume. For tumor growth delay (FIG. 2B), compound activity was measured as the change in median calculated time to the study end point (TTE), which was predefined as tumor volume of 1000 mm^3.

Take `O=c1[nH]cc(F)c(=O)[nH]1` [5-FU, 5-Fluorouracil, reference compound]: the “tumor growth inhibition (TGI) and tumor growth delay (TGD)” value was “led to tumor growth inhibition (TGI) and tumor growth delay (TGD)”. The “Median TTE (time to study end point, tumor volume of 1000 mm^3)” value (vehicle 39.5 days) stood at 44.5 days.
